Measured values: patent US20060233738A1, “Composition for promoting production of type 1 collagen and/or elastin” (priority 2003, published 2006)

What was measured:
Format in all cases: cell-based
type I collagen [1] = assay: Promotion of type I collagen production in normal human skin fibroblast cells (western blotting, image analysis); conditions: NFB cells, 24 hours
Method: (§1) Each compound was dissolved in DMSO to produce a stock solution, and an appropriate amount of each stock solution was added to a culture solution and applied to cells. By following the same procedure, a stock solution was prepared by dissolving silymarin (silymarin group manufactured by Sigma-Aldrich) in the aforementioned DMSO, and an appropriate amount of the stock solution was added to a culture solution to check the effect of adding silymarin.
(§2) Normal human skin fibroblast cells (hereinafter referred to as “NFB”), provided as CCD1059 (purchased from Dainippon Pharmaceutical), were cultured in a skin fibroblast cell culture medium (FGM manufactured by Sanko Junyaku) at 37° C. in a 5% CO2 incubator. FGM was prepared by adding a human skin fibroblast cell growth factor (1 μg/ml), insulin ([…]), gentamycin (50 μg/ml) and amphotericin B (50 μg/ml) to a base fibroblast cell culture medium. This test used cells whose passage number was 3 to 7. […]
(§3) Protein in the sample was separated by SDS-PAGE and transferred to a nitrocellulose membrane. […] The obtained substance was washed, and then detected using ECL plus western blotting detection reagent (manufactured by Amersham Biosciences). The detected band was scanned using an image scanner (manufactured by Amersham Biosciences) and analyzed using image master software to produce numerical data.

elastin [2] = assay: Promotion of elastin production in normal human skin fibroblast cells (western blotting, image analysis); conditions: NFB cells, 24 hours
Method: as §1, §2, §3

type I collagen [3] = assay: Promotion of type I collagen production in a three-dimensional human skin model (TESTSKIN LSE-high); conditions: concentration 0.05% in dipropylene glycol, 2 x 24 hours
Description: (§4) Three-dimensional human skin models are widely used in safety evaluations and effectiveness evaluations as pseudo human skins. In this evaluation, TESTSKIN (LSE-high) (manufactured by Toyobo) was used as a three-dimensional human skin model, and cultured in accordance with the protocol specified in the attached document. Silybum marianum extract containing 70% silymarin (manufactured by Indina), soybean lecithin (manufactured by Wako Pure Chemical Industries) and retinoic acid (all-trans-retinoic acid manufactured by Wako Pure Chemical Industries) were dissolved to respective concentrations in dipropylene glycol (manufactured by Wako Pure Chemical Industries). […]
(§5) Next, 60 μl of each tested substance was added to tissues in an assay ring and the tissues were cultured for 24 hours. […] Protein in the sample was determined using a DC protein assay kit (manufactured by Bio-Rad Laboratories) based on the Lowry method (Non-patent Literature 11), and 20 mM Tris-HCl (pH 7.5) was added to achieve 2 μg/μl. […]
The obtained sample was used to evaluate the property to promote type I collagen production using the western blotting method. […] The obtained substance was washed, and then detected using ECL plus western blotting detection reagent (manufactured by Amersham Biosciences). […]

elastin [4] = assay: Promotion of elastin production in a three-dimensional human skin model (TESTSKIN LSE-high); conditions: concentration 0.05% in dipropylene glycol, 2 x 24 hours
Description: as §4, §5
In the same manner as described in the aforementioned evaluation of the property to promote type I collagen production in a three-dimensional human skin model, the property to promote elastin production was evaluated using a three-dimensional human skin model.

**Q.** Which “Ratio to untreated control (full-length type I collagen)” value (type I collagen [1]; treated concentration 250 nM) does the source give for `CC1=C(/C=C/C(C)=C/C=C/C(C)=C/C(=O)O)C(C)(C)CCC1` [Retinoic acid, all-trans-retinoic acid] here?
**A.** The value was 2.0.

**Q.** What about the “Ratio to untreated control (full-length type I collagen)” value (type I collagen [1]; treated concentration 500 nM) of the same compound?
**A.** The value was 1.4.

**Q.** And the “Ratio to untreated control (full-length elastin)” value (elastin [2]; treated concentration 250 nM)?
**A.** Its value is 2.8.

**Q.** What about the “Ratio to untreated control (full-length elastin)” value (elastin [2]; treated concentration 500 nM) of the same compound?
**A.** Its value is 1.4.

**Q.** And the “Relative expression level (full-length type I collagen)” value (type I collagen [3])?
**A.** The value was 2.0.

**Q.** And the “Relative expression level (full-length elastin)” value (elastin [4])?
**A.** The value was 3.3.
